# According to patent US20120015907A1, “Furopyridine compounds and uses thereof” (NOVARTIS AG, priority 2010, published 2012):
# Values joined by “and” are separate entries in the source; they are usually repeats but may differ in a detail not shown here. Equal entries are not always repeated.
# Molecular target: T1, HCV polymerase (Hepatitis C virus genotype 1b, UniProt Q9WMX2)
# T1 construct: (His)6 (C)
# Experiment: biochemical
# Details: NS5B polymerase IC50 μM, polymerase assay of Biological Example 1
row,SMILES,IC50 [µM]
1,"CCOP(C)(=O)CCCCN(c1nc2oc(-c3ccc(CC)cc3)c(C(=O)NC)c2cc1I)S(C)(=O)=O (stereo not drawn) [Example 23.9991, ethyl 4-(N-(2-(4-ethylphenyl)-5-iodo-3-(methylcarbamoyl)furo[2,3-b]pyridin-6-yl)methylsulfonamido) butyl(methyl)phosphinate]",0.026
2,"CCOP(C)(=O)CCCCCN(c1nc2oc(-c3ccc(CC)cc3)c(C(=O)NC)c2cc1I)S(C)(=O)=O (stereo not drawn) [Example 23.9992, ethyl 5-(N-(2-(4-ethylphenyl)-5-iodo-3-(methylcarbamoyl)furo[2,3-b]pyridin-6-yl)methylsulfonamido)pentyl (methyl)phosphinate]",0.02
3,"CCOP(C)(=O)CCCCCN(c1nc2oc(-c3ccc(C)cc3)c(C(=O)NC)c2cc1I)S(C)(=O)=O (stereo not drawn) [Example 23.9994, ethyl 5-(N-(5-iodo-3-(methylcarbamoyl)-2-p-tolylfuro[2,3-b]pyridin-6-yl)methylsulfonamido)pentyl (methyl)phosphinate]",0.038
4,"CCOP(C)(=O)CCCCN(c1nc2oc(-c3ccc(C)cc3)c(C(=O)NC)c2cc1I)S(C)(=O)=O (stereo not drawn) [Example 23.9995, ethyl 4-(N-(5-iodo-3-(methylcarbamoyl)-2-p-tolylfuro[2,3-b]pyridin-6-yl)methylsulfonamido)butyl (methyl)phosphinate]",0.017
5,"CCc1ccc(-c2oc3nc(N(CCCCCP(C)(=O)O)S(C)(=O)=O)c(I)cc3c2C(=O)NC)cc1 [Example 23.9997, 5-(N-(2-(4-ethylphenyl)-5-iodo-3-(methylcarbamoyl)furo[2,3-b]pyridin-6-yl)methylsulfonamido)pentyl (methyl)phosphinic acid]",0.012
6,"CNC(=O)c1c(-c2ccc(C)cc2)oc2nc(N(CCCCCP(C)(=O)O)S(C)(=O)=O)c(I)cc12 [Example 23.9998, 5-(N-(5-iodo-3-(methylcarbamoyl)-2-p-tolylfuro[2,3-b]pyridin-6-yl)methylsulfonamido)pentyl (methyl)phosphinic acid]",0.011
7,"CNC(=O)c1c(-c2ccc(C)cc2)oc2nc(N(CCCCP(C)(=O)O)S(C)(=O)=O)c(I)cc12 [Example 23.9999, 4-(N-(5-iodo-3-(methylcarbamoyl)-2-p-tolylfuro[2,3-b]pyridin-6-yl)methylsulfonamido)butyl (methyl)phosphinic acid]",0.013
8,"CCOP(C)(=O)CCCN(c1nc2oc(-c3ccc(C)cc3)c(C(=O)NC)c2cc1C1CC1)S(C)(=O)=O (stereo not drawn) [Example 23.99992, ethyl 3-(N-(5-cyclopropyl-3-(methylcarbamoyl)-2-p-tolylfuro[2,3-b]pyridin-6-yl)methylsulfonamido)propyl (methyl)phosphinate]",0.007
9,"CCOP(C)(=O)CCCCN(c1nc2oc(-c3ccc(C)cc3)c(C(=O)NC)c2cc1C1CC1)S(C)(=O)=O (stereo not drawn) [Example 23.99993, ethyl 4-(N-(5-cyclopropyl-3-(methylcarbamoyl)-2-p-tolylfuro[2,3-b]pyridin-6-yl)methylsulfonamido)butyl (methyl)phosphinate]",0.011

# Same assay, conditions: polymerase assay of Biological Example 1; read-out: NS5B polymerase IC50
row,IC50,SMILES
1,0.058 µM,"CCc1cc2c(C(=O)NC)c(-c3ccc(F)cc3)oc2nc1N(CCCN(C)S(C)(=O)=O)S(C)(=O)=O [Example 23.3, 5-ethyl-2-(4-fluorophenyl)-N-methyl-6-(N-(3-(N-methylmethylsulfonamido)propyl)methylsulfonamido) furo[2,3-b]pyridine-3-carboxamide]"
2,0.125 µM,"CCc1cc2c(C(=O)NC)c(-c3ccc(F)cc3)oc2nc1N(CCCNS(C)(=O)=O)S(C)(=O)=O [Example 23.4, 5-ethyl-2-(4-fluorophenyl)-N-methyl-6-(N-(3-(methylsulfonamido)propyl)methylsulfonamido)furo[2,3-b]pyridine-3-carboxamide]"
3,0.151 µM and 0.035 µM,"CNC(=O)c1c(-c2ccc(F)cc2)oc2nc(N(CCCn3ccnc3)S(C)(=O)=O)c(I)cc12 [Example 23.5, 6-(N-(3-(1H-imidazol-1-yl)propyl)methylsulfonamido)-2-(4-fluorophenyl)-5-iodo-N-methylfuro[2,3-b]pyridine-3-carboxamide]"
4,0.058 µM,"CCc1cc2c(C(=O)NC)c(-c3ccc(F)cc3)oc2nc1N(CCCCS(=O)(=O)c1ccccc1)S(C)(=O)=O [Example 23.8, 5-ethyl-2-(4-fluorophenyl)-N-methyl-6-(N-(4-(phenylsulfonyl)butyl)methylsulfonamido)furo[2,3-b]pyridine-3-carboxamide]"
5,0.074 µM,"CCc1cc2c(C(=O)NC)c(-c3ccc(F)cc3)oc2nc1N(CCCN(C)S(=O)(=O)c1ccccc1)S(C)(=O)=O [Example 23.9, 5-ethyl-2-(4-fluorophenyl)-N-methyl-6-(N-(3-(N-methylphenylsulfonamido)propyl)methylsulfonamido) furo[2,3-b]pyridine-3-carboxamide]"
6,0.044 µM,"CCc1cc2c(C(=O)NC)c(-c3ccc(F)cc3)oc2nc1N(CCCS(=O)(=O)C(C)(C)C)S(C)(=O)=O [Example 23.93, 6-(N-(3-(tert-butylsulfonyl)propyl)methylsulfonamido)-5-ethyl-2-(4-fluorophenyl)-N-methylfuro[2,3-b]pyridine-3-carboxamide]"
7,0.044 µM,"CCc1cc2c(C(=O)NC)c(-c3ccc(F)cc3)oc2nc1N(CCCCC1=C(O)CCC1=O)S(C)(=O)=O [Example 23.94, 5-ethyl-2-(4-fluorophenyl)-6-(N-(4-(2-hydroxy-5-oxocyclopent-1-enyl)butyl)methylsulfonamido)-N-methylfuro[2,3-b]pyridine-3-carboxamide]"
8,0.029 µM,"CCc1cc2c(C(=O)NC)c(-c3ccc(F)cc3)oc2nc1N(CCCC1=C(O)CCC1=O)S(C)(=O)=O [Example 23.95, 5-ethyl-2-(4-fluorophenyl)-6-(N-(3-(2-hydroxy-5-oxocyclopent-1-enyl)propyl)methylsulfonamido)-N-methylfuro[2,3-b]pyridine-3-carboxamide]"
9,0.189 µM,"CCc1cc2c(C(=O)NC)c(-c3ccc(F)cc3)oc2nc1N(CCCS(=O)(=O)C(F)(F)F)S(C)(=O)=O [Example 23.96, 5-ethyl-2-(4-fluorophenyl)-N-methyl-6-(N-(3-(trifluoromethylsulfonyl)propyl)methylsulfonamido) furo[2,3-b]pyridine-3-carboxamide]"
10,0.035 µM,"CCc1cc2c(C(=O)NC)c(-c3ccc(F)cc3)oc2nc1N(CCCCS(=O)(=O)C(F)(F)F)S(C)(=O)=O [Example 23.97, 5-ethyl-2-(4-fiuorophenyl)-N-methyl-6-(N-(4-(trifluoromethylsulfonyl)butyl)methylsulfonamido) furo[2,3-b]pyridine-3-carboxamide]"
11,0.061 µM,"CCc1cc2c(C(=O)NC)c(-c3ccc(F)cc3)oc2nc1N(CCCS(=O)(=O)C1CC1)S(C)(=O)=O [Example 23.991, 6-(N-(3-(cyclopropylsulfonyl)propyl)methylsulfonamido)-5-ethyl-2-(4-fluorophenyl)-N-methylfuro[2,3-b]pyridine-3-carboxamide]"
12,0.067 µM,"CCc1cc2c(C(=O)NC)c(-c3ccc(F)cc3)oc2nc1N(CCCS(=O)(=O)CC)S(C)(=O)=O [Example 23.992, 5-ethyl-6-(N-(3-(ethylsulfonyl)propyl)methylsulfonamido)-2-(4-fluorophenyl)-N-methylfuro[2,3-b] pyridine-3-carboxamide]"
13,0.125 µM,"CNC(=O)c1c(-c2ccc(F)cc2)oc2nc(N(CCCNS(=O)(=O)c3ccccc3[N+](=O)[O-])S(C)(=O)=O)c(I)cc12 [Example 23.993, 2-(4-fluorophenyl)-5-iodo-N-methyl-6-(N-(3-(2-nitrophenylsulfonamido)propyl)methylsulfonamido) furo[2,3-b]pyridine-3-carboxamide]"
14,0.114 µM,"CNC(=O)c1c(-c2ccc(F)cc2)oc2nc(N(CCn3ccnc3)S(C)(=O)=O)c(I)cc12 [Example 23.995, 6-(N-(2-(1H-imidazol-1-yl)ethyl)methylsulfonamido)-2-(4-fluorophenyl)-5-iodo-N-methylfuro[2,3-b]pyridine-3-carboxamide]"
15,0.242 µM,"CNC(=O)c1c(-c2ccc(F)cc2)oc2nc(N(CCN(C)S(C)(=O)=O)S(C)(=O)=O)c(I)cc12 [Example 23.996, 2-(4-fluorophenyl)-5-iodo-N-methyl-6-(N-(2-(N-methylmethylsulfonamido)ethyl)methylsulfonamido) furo[2,3-b]pyridine-3-carboxamide]"
16,0.058 µM,"CCc1cc2c(C(=O)NC)c(-c3ccc(F)cc3)oc2nc1N(CCCN(C)C(C)=O)S(C)(=O)=O [Example 23.997, 5-ethyl-2-(4-fluorophenyl)-N-methyl-6-(N-(3-(N-methylacetamido)propyl)methylsulfonamido)furo[2,3-b]pyridine-3-carboxamide]"
17,0.184 µM,"CCc1cc2c(C(=O)NC)c(-c3ccc(F)cc3)oc2nc1N(CCCN(C)C(=O)c1ccccc1)S(C)(=O)=O [Example 23.998, 5-ethyl-2-(4-fluorophenyl)-N-methyl-6-(N-(3-(N-methylbenzamido)propyl)methylsulfonamido)furo[2,3-b]pyridine-3-carboxamide]"
18,0.079 µM,"CCc1cc2c(C(=O)NC)c(-c3ccc(F)cc3)oc2nc1N(CCC[S+](C)[O-])S(C)(=O)=O (stereo not drawn) [Example 23.999, 5-ethyl-2-(4-fluorophenyl)-N-methyl-6-(N-(3-(methylsulfinyl)propyl)methylsulfonamido)furo[2,3-b]pyridine-3-carboxamide]"
19,0.026 µM,"CCc1ccc(-c2oc3nc(N(CCCCCO)S(C)(=O)=O)c(I)cc3c2C(=O)NC)cc1 [Example 23.9993, 2-(4-ethylphenyl)-6-(N-(5-hydroxypentyl)methylsulfonamido)-5-iodo-N-methylfuro[2,3-b]pyridine-3-carboxamide]"
20,0.019 µM,"CNC(=O)c1c(-c2ccc(C)cc2)oc2nc(N(CCCCO)S(C)(=O)=O)c(I)cc12 [Example 23.9996, 6-(N-(4-hydroxybutyl)methylsulfonamido)-5-iodo-N-methyl-2-p-tolylfuro[2,3-b]pyridine-3-carboxamide]"
21,0.009 µM,"CNC(=O)c1c(-c2ccc(C)cc2)oc2nc(N(CCCCCO)S(C)(=O)=O)c(I)cc12 [Example 23.99991, 6-(N-(5-hydroxypentyl)methylsulfonamido)-5-iodo-N-methyl-2-p-tolylfuro[2,3-b]pyridine-3-carboxamide]"
